IC50 data for 30 compounds are collected here from patent US20050192279A1, “Pyridazinones as antagonists of alpha4 integrins” (priority 2004, published 2005).

Molecules are shown by their SMILES.

In one assay the target is T1, human α4β7 integrin (Homo sapiens, UniProt P13612+P26010).
T1 construct: expressed in transfected cells; host or cells: K562 cells, stably transfected
T1 sequence (P13612 34-1032): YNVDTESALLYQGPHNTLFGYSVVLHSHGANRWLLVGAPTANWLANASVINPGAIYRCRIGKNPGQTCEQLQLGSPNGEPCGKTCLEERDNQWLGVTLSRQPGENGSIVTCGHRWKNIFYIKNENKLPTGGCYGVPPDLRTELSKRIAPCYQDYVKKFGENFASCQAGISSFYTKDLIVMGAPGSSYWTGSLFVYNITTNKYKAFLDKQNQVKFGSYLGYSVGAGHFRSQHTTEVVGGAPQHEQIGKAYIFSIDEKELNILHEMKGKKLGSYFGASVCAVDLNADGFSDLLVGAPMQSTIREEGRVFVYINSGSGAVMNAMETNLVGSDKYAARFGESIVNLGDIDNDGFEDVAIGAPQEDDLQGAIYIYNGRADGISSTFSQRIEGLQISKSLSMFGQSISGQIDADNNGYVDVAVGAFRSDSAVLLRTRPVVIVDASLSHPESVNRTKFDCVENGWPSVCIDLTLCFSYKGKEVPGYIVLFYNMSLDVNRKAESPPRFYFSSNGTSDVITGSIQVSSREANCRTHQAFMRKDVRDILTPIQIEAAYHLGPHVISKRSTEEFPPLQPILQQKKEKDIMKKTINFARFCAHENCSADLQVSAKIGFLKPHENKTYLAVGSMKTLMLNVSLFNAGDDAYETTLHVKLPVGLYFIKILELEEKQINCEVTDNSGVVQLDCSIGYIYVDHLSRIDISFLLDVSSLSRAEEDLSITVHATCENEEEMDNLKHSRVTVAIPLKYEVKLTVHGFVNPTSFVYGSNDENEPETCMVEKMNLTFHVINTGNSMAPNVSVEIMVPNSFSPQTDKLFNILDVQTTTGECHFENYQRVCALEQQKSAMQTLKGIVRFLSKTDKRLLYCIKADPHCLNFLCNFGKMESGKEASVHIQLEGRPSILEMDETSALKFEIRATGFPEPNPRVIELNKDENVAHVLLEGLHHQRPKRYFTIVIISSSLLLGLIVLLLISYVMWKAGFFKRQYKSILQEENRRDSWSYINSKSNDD
T1 sequence (P26010 20-798): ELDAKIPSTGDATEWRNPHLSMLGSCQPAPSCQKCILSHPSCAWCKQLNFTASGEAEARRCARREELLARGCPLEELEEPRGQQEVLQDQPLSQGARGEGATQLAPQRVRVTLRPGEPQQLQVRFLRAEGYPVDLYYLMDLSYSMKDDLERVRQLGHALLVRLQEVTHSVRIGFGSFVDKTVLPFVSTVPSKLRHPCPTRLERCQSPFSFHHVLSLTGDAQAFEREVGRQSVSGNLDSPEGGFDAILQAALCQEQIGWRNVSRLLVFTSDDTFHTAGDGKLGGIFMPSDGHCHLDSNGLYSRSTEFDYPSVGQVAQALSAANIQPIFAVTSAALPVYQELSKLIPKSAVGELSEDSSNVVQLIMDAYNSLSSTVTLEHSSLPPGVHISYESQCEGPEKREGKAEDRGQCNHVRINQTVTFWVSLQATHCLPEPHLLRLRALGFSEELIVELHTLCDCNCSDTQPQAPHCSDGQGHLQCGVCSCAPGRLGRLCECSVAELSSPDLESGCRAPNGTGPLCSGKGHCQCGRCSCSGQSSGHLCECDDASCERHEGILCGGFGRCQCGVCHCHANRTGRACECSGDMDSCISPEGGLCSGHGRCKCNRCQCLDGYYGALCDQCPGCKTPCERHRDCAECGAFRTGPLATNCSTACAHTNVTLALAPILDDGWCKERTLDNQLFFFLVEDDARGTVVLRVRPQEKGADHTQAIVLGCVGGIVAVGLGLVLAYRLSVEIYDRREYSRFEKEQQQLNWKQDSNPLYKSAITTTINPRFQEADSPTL
Put plainly: α4β7-K562 Cell Adhesion Assay (α4β7 Mediated Adhesion/MAdCAM-1). Type of assay: cell-based. The note with it: α4β7-K562 cell adhesion to hMAdCAM-1; read-out: α4β7 IC50. Summed up: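 Anti-FLAG plates coated 1 h at 4° C with FLAG-hMAdCAM-1 in PBS pH 7.4, 1% BSA, 1 mM Mn2+. Stably transfected K562 cells expressing human α4β7, labelled with CFDA-SE, adhered with compound 1 h at room temperature. After four washes, bound cells lysed in 0.1 M NaOH for fluorescence read-out.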

The target in a further assay is T2, α4β1 (Homo sapiens, UniProt P05556+P13612).
T2 construct: Ramos Cell Adhesion Assay (α4β1 Mediated Adhesion/VCAM-1); endogenous in cells; host or cells: Ramos cells
T2 sequence (P05556 21-798, one chain of several): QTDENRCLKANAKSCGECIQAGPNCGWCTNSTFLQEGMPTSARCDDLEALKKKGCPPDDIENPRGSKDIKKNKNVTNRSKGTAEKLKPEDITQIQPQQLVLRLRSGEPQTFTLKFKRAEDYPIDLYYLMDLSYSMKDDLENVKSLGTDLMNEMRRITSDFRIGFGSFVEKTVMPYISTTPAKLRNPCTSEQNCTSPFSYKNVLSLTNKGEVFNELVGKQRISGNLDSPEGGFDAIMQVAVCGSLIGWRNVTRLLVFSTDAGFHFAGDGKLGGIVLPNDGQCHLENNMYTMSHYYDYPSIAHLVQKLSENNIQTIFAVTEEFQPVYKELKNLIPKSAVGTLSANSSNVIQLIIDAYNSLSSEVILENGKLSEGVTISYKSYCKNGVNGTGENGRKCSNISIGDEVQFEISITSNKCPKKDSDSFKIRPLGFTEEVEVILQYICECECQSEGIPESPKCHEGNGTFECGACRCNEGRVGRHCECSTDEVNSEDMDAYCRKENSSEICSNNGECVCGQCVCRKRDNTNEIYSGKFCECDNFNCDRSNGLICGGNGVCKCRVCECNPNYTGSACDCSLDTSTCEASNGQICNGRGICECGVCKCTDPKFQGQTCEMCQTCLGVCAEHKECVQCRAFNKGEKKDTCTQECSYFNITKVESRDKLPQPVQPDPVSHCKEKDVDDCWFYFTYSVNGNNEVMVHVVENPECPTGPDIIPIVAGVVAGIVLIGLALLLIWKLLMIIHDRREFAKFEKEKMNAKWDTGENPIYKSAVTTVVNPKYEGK
Nature of the assay: Ramos Cell Adhesion Assay (α4β1 Mediated Adhesion/VCAM-1). Type of assay: cell-based. The settings on record: Ramos cell adhesion to hVCAM-1; read-out: α4β1 IC50. Summed up: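 Plates coated overnight at 4° C with recombinant hVCAM-1 at 4.0 μg/mL, pH 9.0, then blocked in PBS/1% BSA. Calcein AM-labeled Ramos cells added with compounds and left to adhere 1 h at room temperature; after washing, cells lysed in 1 M Tris pH 8.0/1% SDS.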

In general, IC50 refers to the point on the concentration scale where inhibition reaches its midpoint. As for `COc1cnn(C)c(=O)c1-c1ccc(C[C@H](NC(=O)C23CCC(CC2)CN3C(=O)CCc2ccco2)C(=O)O)cc1` [Cpd 115], the IC50 was found to be 94 nM on human α4β7 integrin and 63.5 nM at α4β1.

`COc1cnn(C)c(=O)c1-c1ccc(C[C@H](NC(=O)C2(N)CCOCC2)C(=O)O)cc1` [Cpd 116]: the values for the 50% inhibitory concentration (IC50) at human α4β7 integrin and on α4β1 were 97 nM and 656 nM, respectively.

In the case of `COc1cnn(Cc2ccccc2)c(=O)c1-c1ccc(C[C@H](NC(=O)c2c(Cl)cccc2Cl)C(=O)O)cc1` [Cpd 117], the IC50 at human α4β7 integrin amounted to 102 nM; at α4β1, 518 nM.

Take `COc1cnn(C)c(=O)c1-c1ccc(C[C@H](NC(=O)c2c(Cl)cccc2Cl)C(=O)OCCN2CCOCC2)cc1` [Cpd 118]: the values for the IC50 at human α4β7 integrin and at α4β1 were 103 nM and 1290 nM, respectively.

For the compound `COc1cnn(C)c(=O)c1-c1ccc(C[C@H](NC(=O)c2c(Cl)cccc2Cl)C(=O)NCCO)cc1` [Cpd 119], the concentration for half-maximal inhibition (IC50) at human α4β7 integrin is 105 nM; at α4β1 it was 3800 nM.

As for `CCOC(=O)Cc1cnn(C)c(=O)c1-c1ccc(C[C@H](NC(=O)c2c(Cl)cccc2Cl)C(=O)O)cc1` [Cpd 121, (S)-2-(2,6-dichloro-benzoylamino)-3-[4-(5ethoxycarbonylmethyl-2-methyl-3-oxo-2,3-dihydro-pyridazin-4-yl)-phenyl]-propionic acid], the IC50 is 114 nM on human α4β7 integrin and more than 5000 nM on α4β1.

On to `COc1cnn(C)c(=O)c1-c1ccc(C[C@H](NC(=O)C23CCC(CC2)CN3C(=O)CCc2cnc[nH]2)C(=O)O)cc1` [Cpd 122], for which the IC50 on human α4β7 integrin amounted to 118 nM; on α4β1, 142 nM.

For the compound `COc1cnn(C)c(=O)c1-c1ccc(C[C@H](NC(=O)CC(C)C)C(=O)O)cc1` [Cpd 124], the IC50 was 119 nM on human α4β7 integrin and more than 1000 nM at α4β1.

As for `COCCC(=O)N1C2CCC(CC2)[C@H]1C(=O)N[C@@H](Cc1ccc(-c2c(OC)cnn(C)c2=O)cc1)C(=O)O` [Cpd 125], the IC50 at human α4β7 integrin came to 123 nM; on α4β1, 112 nM.

`COc1cnn(C)c(=O)c1-c1ccc(C[C@H](NC(=O)C23CCC(CC2)CN3C(=O)OC(C)(C)C)C(=O)O)cc1` [Cpd 126]: the figures for the IC50 on human α4β7 integrin and at α4β1 were 127 nM and 2460 nM, respectively.

As to `COc1cnn(C)c(=O)c1-c1ccc(C[C@H](NC(=O)[C@@H](O)C(C)C)C(=O)O)cc1` [Cpd 127], the half-maximal inhibitory concentration (IC50) at human α4β7 integrin is 133 nM; at α4β1, more than 1000 nM.

Take `CN[C@H](C(=O)N[C@@H](Cc1ccc(-c2c(OC)cnn(CCN3CCOCC3)c2=O)cc1)C(=O)O)[C@@H](C)OCc1ccccc1` [Cpd 128]: the half-inhibitory concentration (IC50) on human α4β7 integrin came out at 138 nM; at α4β1, 1490 nM.

Regarding `COc1cnn(C)c(=O)c1-c1ccc(C[C@H](NC(=O)[C@H](O)C(C)C)C(=O)O)cc1` [Cpd 129], the IC50 is 141 nM at human α4β7 integrin and more than 1000 nM at α4β1.

In the case of `COc1ccc2cc(C(=O)N[C@@H](Cc3ccc(-c4c(OC)cnn(C)c4=O)cc3)C(=O)O)c(=O)oc2c1` [Cpd 130], the IC50 at human α4β7 integrin was 147 nM; on α4β1, more than 1000 nM.

As for `O=C(N[C@@H](Cc1ccc(-c2c(-n3nccc3-c3cccs3)cnn(CCO)c2=O)cc1)C(=O)O)c1c(Cl)cccc1Cl` [Cpd 131, (S)-2-(2,6-Dichloro-benzoylamino)-3-{4-[2-(2-hydroxy-ethyl)-3-oxo-5-(5-thiophen-2-yl-pyrazol-1-yl)-2,3-di hydro-pyridazin-4-yl]-phenyl}-propionic acid], the IC50 at human α4β7 integrin was 152 nM; on α4β1, more than 5000 nM.

As for `COc1cnn(C)c(=O)c1-c1ccc(C[C@H](NC(=O)C2(c3ccc(F)cc3)CCCC2)C(=O)O)cc1` [Cpd 132], the IC50 at human α4β7 integrin is 152 nM; on α4β1, more than 5000 nM.

Turning to `COc1cnn(C)c(=O)c1-c1ccc(CC(NC(=O)C2(C(=O)NC(Cc3ccc(-c4c(OC)cnn(C)c4=O)cc3)C(=O)O)CC2)C(=O)O)cc1` (stereo not drawn) [Cpd 133], the IC50 at human α4β7 integrin was found to be 10 nM; on α4β1, 1280 nM.

Turning to `COc1cnn(C)c(=O)c1-c1ccc(C[C@H](NC(=O)C23CCC(CC2)CN3C)C(=O)O)cc1` [Cpd 135], the figures for the IC50 on human α4β7 integrin and on α4β1 were 165 nM and more than 1000 nM, respectively.

As to `COc1cnn(C)c(=O)c1-c1ccc(C[C@H](NC(=O)C2C(C)(C)C2(C)C)C(=O)O)cc1` [Cpd 136, (S)-3-[4-(5-Methoxy-2-methyl-3-oxo-2,3-dihydro-pyridazin-4-yl)-phenyl]-2-[(2,2,3,3-tetramethyl-cyclopropanecarbonyl)-amino]-propionic acid], the values for the IC50 on human α4β7 integrin and on α4β1 were 179 nM and 1160 nM, respectively.

Turning to `COc1cnn(C)c(=O)c1-c1ccc(C[C@H](NC(=O)c2ccc(C(=O)O)cc2)C(=O)O)cc1` [Cpd 137], the results for the IC50 on human α4β7 integrin and at α4β1 were 200 nM and 962 nM, respectively.

In the case of `COc1cnn(C)c(=O)c1-c1ccc(C[C@H](NC(=O)c2c(C)cc(C)nc2N)C(=O)O)cc1` [Cpd 138], the IC50 amounted to 204 nM on human α4β7 integrin and 508 nM at α4β1.

As for `COc1cnn(C)c(=O)c1-c1ccc(C[C@H](NC(=O)C23CCC(CC2)CN3C(=O)CCC2CCNCC2)C(=O)O)cc1` [Cpd 139], the IC50 on human α4β7 integrin was determined as 228 nM; at α4β1 it was 319 nM.

As for `CCOc1cnn(C(C)(C)C)c(=O)c1-c1ccc(C[C@H](NC(=O)c2c(Cl)cccc2Cl)C(=O)O)cc1` [Cpd 142], the IC50 on human α4β7 integrin was 230 nM; at α4β1, more than 1000 nM.

Take `COc1cnn(C)c(=O)c1-c1ccc(C[C@H](NC(=O)C(=O)C(C)C)C(=O)O)cc1` [Cpd 143]: the IC50 at human α4β7 integrin is 244 nM; at α4β1, more than 1000 nM.

For the compound `COc1cnn(C)c(=O)c1-c1ccc(C[C@H](NC(=O)c2cnoc2C)C(=O)O)cc1` [Cpd 147], the IC50 on human α4β7 integrin was 249 nM; at α4β1 it was more than 5000 nM.

Consider `Cn1ncc(-n2nccc2-c2cccs2)c(-c2ccc(C[C@H](NC(=O)c3c(Cl)cccc3Cl)C(=O)O)cc2)c1=O` [Cpd 148], for which the values for the IC50 at human α4β7 integrin and on α4β1 were 261 nM and more than 5000 nM, respectively.

For the compound `CN(C)CCOc1cnn(C)c(=O)c1-c1ccc(C[C@H](NC(=O)c2c(Cl)cccc2Cl)C(=O)O)cc1` [Cpd 150], the results for the IC50 on human α4β7 integrin and on α4β1 were 271 nM and 154 nM, respectively.

Regarding `Cn1ncc(CC(=O)O)c(-c2ccc(C[C@H](NC(=O)c3c(Cl)cccc3Cl)C(=O)O)cc2)c1=O` [Cpd 152], the values for the IC50 on human α4β7 integrin and on α4β1 were 282 nM and more than 5000 nM, respectively.

`COc1cnn(C)c(=O)c1-c1ccc(CC(NC(=O)C(NC(C)C)C(C)C)C(=O)O)cc1` (stereo not drawn) [Cpd 153, 2-(2-Isopropylamino-3-methyl-butyrylamino)-3-[4-(5-methoxy-2-methyl-3-oxo-2,3-dihydro-pyridazin-4-yl)-phenyl]-propionic acid]: the IC50 came out at 295 nM on human α4β7 integrin and 2050 nM at α4β1.

With `COc1cnn(CCN2CCOCC2)c(=O)c1-c1ccc(C[C@H](NC(=O)[C@@H](NC(=O)OC(C)(C)C)[C@@H](C)O)C(=O)O)cc1` [Cpd 154], the concentration for half-maximal inhibition (IC50) at human α4β7 integrin is 330 nM; at α4β1 it was more than 5000 nM.
